Data published in patent US20110112097A1, “Substituted imidazoline-2,4-diones, process for preparation thereof, medicaments comprising these compounds and use thereof” (SANOFI-AVENTIS, priority 2008, published 2011).
Structures can show the parent of a compound that is named as a salt. Where two headings read alike, the source gives them in different places.

What was measured:
hCB2R = molecular target: T1, hCB2R (Homo sapiens, UniProt P34972); test: In vitro functional assay with recombinant cells (FLIPR, intracellular Ca2+), CB2; format: cell-based; settings: recombinant HEK293 cells expressing CB2 and G-protein Galpha16; 20 min preincubation, then reference agonist; Ca2+ change (Fluo-4)
T1 construct: expressed in transfected cells; host or cells: HEK293
T1 sequence (P34972 whole entry): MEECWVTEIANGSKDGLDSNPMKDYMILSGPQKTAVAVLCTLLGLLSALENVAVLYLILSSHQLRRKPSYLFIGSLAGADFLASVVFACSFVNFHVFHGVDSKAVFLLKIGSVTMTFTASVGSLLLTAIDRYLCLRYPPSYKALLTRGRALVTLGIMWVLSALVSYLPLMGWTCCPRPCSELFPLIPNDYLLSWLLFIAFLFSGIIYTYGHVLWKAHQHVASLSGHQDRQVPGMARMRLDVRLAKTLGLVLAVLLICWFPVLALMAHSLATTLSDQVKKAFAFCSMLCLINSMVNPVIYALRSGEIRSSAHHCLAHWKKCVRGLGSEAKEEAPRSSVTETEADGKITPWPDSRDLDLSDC
Procedure: (§1) In vitro functional assays with recombinant cells:
(§2) Function-testing assays were performed by means of the FLIPR technique (“Fluorometric Imaging Plate Reader”, Molecular Devices Corp.).
(§3) To this end, ligand-induced changes in the intracellular concentration of Ca^2+ in recombinant HEK293 cells, which expressed both a cannabinoid receptor (CB1 or CB2) and G-protein Galpha16, were determined. For the studies, cells were sown into 96-well microtiter plates (60 000 cells/well) and left to grow overnight. The medium was removed and the cells were incubated in buffer which contained the fluorescent dye Fluo-4. After this loading with dye, the cells were washed, test substance was added dissolved in buffer, the mixture was incubated for 20 minutes, a known cannabinoid receptor agonist as a reference agonist was added in buffer and, finally, the changes in the intracellular Ca^2+ concentration were measured in the FLIPR unit.
Results were presented as the percentage change relative to the control (0%: analogous experiment without test substance and without reference agonist, i.e. only with buffer; 100%: analogous experiment without test substance, but with reference agonist in excess), and used to calculate dose/action curves, and IC50 values were determined

hCB1R [1] = molecular target: T2, hCB1R (Homo sapiens, UniProt P21554); test: Binding to the CB1 receptor ([3H]-SR141716A displacement)
T2 sequence (P21554 whole entry): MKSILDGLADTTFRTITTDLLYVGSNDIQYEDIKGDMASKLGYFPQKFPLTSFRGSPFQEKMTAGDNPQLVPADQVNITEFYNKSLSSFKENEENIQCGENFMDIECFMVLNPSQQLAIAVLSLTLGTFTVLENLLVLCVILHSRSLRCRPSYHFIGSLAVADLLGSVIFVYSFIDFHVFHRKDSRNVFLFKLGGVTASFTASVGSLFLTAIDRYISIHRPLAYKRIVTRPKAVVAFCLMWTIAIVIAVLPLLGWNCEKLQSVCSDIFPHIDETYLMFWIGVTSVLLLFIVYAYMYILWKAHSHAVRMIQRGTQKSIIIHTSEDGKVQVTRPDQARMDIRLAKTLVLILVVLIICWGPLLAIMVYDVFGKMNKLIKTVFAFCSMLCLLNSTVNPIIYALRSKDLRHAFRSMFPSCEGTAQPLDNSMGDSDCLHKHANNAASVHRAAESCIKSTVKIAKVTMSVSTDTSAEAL
Procedure: Binding to the CB1 Receptor:
Test compounds: The compounds (3 μl, 10 mM, 100% DMSO), pipetted into 96-well PP microtiter plates, were diluted with 27 μl of 100% DMSO (dimethyl sulfoxide). Proceeding from this solution, further 3-fold dilution steps were undertaken by transferring 10 μl in each case to a new PP microtiter plate and adding a further 20 μl of 100% DMSO. In each case 6 μl of these solutions were transferred into new 96-well PP microtiter plates and made up with 144 μl of assay buffer. The end concentrations ranged from 10 μM to 0.005 μM.
Negative control: AM 251, dissolved in assay buffer with 1% DMSO, was added to the dilution series in the microtiter plates as a control. The end concentration was 1 μM.
Blank control: assay buffer with 1% DMSO was added to the dilution series of the microtiter plates as a blank control.
Summary of the Assay Parameters:
High control: ^3H binding without addition of the compound Low control: ^3H binding in the presence of 1 μM AM 251
The values were calculated using the corrected raw data.
The values reported were obtained as average values of a double determination. The IC50 values were calculated from the measurements with the program Xlfit, formula 205. Ki values were obtained from the IC50 and Kd values utilizing the Cheng-Prusoff equation:
[formula] • Literature: Cheng, Y.-C., and Prusoff, W. H. (1973) Biochem. Pharmacol 22, 3099-3108

hCB1R [2] = molecular target: T2, hCB1R; test: In vitro functional assay with recombinant cells (FLIPR, intracellular Ca2+), CB1; format: cell-based; parameters: expressed in transfected cells; host or cells: HEK293
Procedure: as §1, §2, §3

[3] = recombinant HEK293 cells expressing CB1 and G-protein Galpha16, 20 min preincubation, then reference agonist, Ca2+ change (Fluo-4), read-out: hCB1R: FLIPR, IC50
[4] = CHO-K1/cannabinoid CB1 protein 2 μg/well, [3H]-SR141716A 0.5 nM, Ki from IC50 by Cheng-Prusoff, average of double determination, read-out: hCB1R, binding Ki

SMILES | Ki (hCB1R [1]; [4]) [nM] | further results
CC1(C)C(=O)N(c2ccc(F)c(C(F)(F)F)c2)C(=O)N1Cc1ccccc1Cc1ccccc1 [Example 79] | – | IC50 (hCB2R): > 10000 nM; Ki (hCB1R [1]): 44 nM; IC50 (hCB1R [2]; [3]): 103 nM
CCc1cccc(N2C(=O)N(Cc3ccccc3Cc3ccccc3)C(C)(C)C2=O)c1 [Example 1, 1-(2-Benzylbenzyl)-3-(3-ethylphenyl)-5,5-dimethylimidazolidine-2,4-dione] | 218 | –
CC1(C)C(=O)N(c2ccc(C#N)nc2)C(=O)N1Cc1ccccc1Cc1ccccc1 [Example 123, 543-(2-Benzylbenzyl)-4,4-dimethyl-2,5-dioxo-imidazolidin-1-yl]pyridine-2-carbonitrile; hydrochloride] | 140 | –
CN1CCC2(CC1)C(=O)N(c1ccc(C#N)c(C(F)(F)F)c1)C(=O)N2Cc1ccccc1Cc1ccccc1 [Example 111, 4-[1-(2-Benzylbenzyl)-8-methyl-2,4-dioxo-1,3,8-triazaspiro[4.5]dec-3-yl]-2-trifluoromethylbenzo-nitrile; trifluoroacetate] | 61 | –
CC1(C)C(=O)N(c2ccc(Oc3ccc(Cl)cc3)c(C(F)(F)F)c2)C(=O)N1Cc1ccccc1Cc1ccccc1 [Example 101, 1-(2-Benzylbenzyl)-3-[4-(4-chlorophenoxy)-3-trifluoromethylphenyl]-5,5-dimethylimidazolidine-2,4-dione] | 99 | –
CC1(C)C(=O)N(c2ccnc(Cl)c2)C(=O)N1Cc1ccccc1Cc1ccccc1 [Example 117, 1-(2-Benzylbenzyl)-3-(2-chloropyridin-4-yl)-5,5-dimethylimidazolidine-2,4-dione] | 94 | –
N#Cc1ccc(N2C(=O)N(Cc3ccccc3Cc3ccccc3)C3(CCC3)C2=O)cc1C(F)(F)F [Example 107, 4-[5-(2-Benzylbenzyl)-6,8-dioxo-5,7-diazaspiro[3.4]-oct-7-yl]-2-trifluoro-methylbenzonitrile] | – | IC50 (hCB2R): > 10000 nM; Ki (hCB1R [1]): 12 nM; IC50 (hCB1R [2]): 43 nM
CC1(C)C(=O)N(c2ccc(C#N)c(C(F)(F)F)c2)C(=O)N1Cc1ccccc1Cc1ccccc1 [Example 88, 4-[3-(2-benzylbenzyl)-4,4-dimethyl-2,5-dioxoimidazolidin-1-yl]-2-trifluoromethylbenzonitrile] | – | IC50 (hCB2R): > 30000 nM; Ki (hCB1R [1]): 2 nM; IC50 (hCB1R [2]): 13 nM
CC(C)(C)c1cc(N2C(=O)N(Cc3ccccc3Cc3ccccc3)C(C)(C)C2=O)ccc1C#N [Example 118, 4-[3-(2-Benzylbenzyl)-4,4-dimethyl-2,5-dioxo-imidazolidin-1-yl]-2-tert-butylbenzonitrile] | – | IC50 (hCB2R): > 10000 nM; Ki (hCB1R [1]): 5 nM; IC50 (hCB1R [2]; [3]): 114 nM
COC(=O)c1ccc(C(=O)c2ccc(CN3C(=O)N(c4ccc(F)c(C(F)(F)F)c4)C(=O)C3(C)C)cc2)cc1 [Example 151, Methyl 4-{4-[3-(4-fluoro-3-trifluoromethylphenyl)-5,5-dimethyl-2,4-dioxo-imidazolidin-1-ylmethyl]-benzoyl}benzoate] | 62 | –
CC1(C)C(=O)N(c2ccc(F)c(F)c2)C(=O)N1Cc1ccccc1Cc1ccccc1 [Example 41] | 188 | –
COC(=O)c1ccc(Cc2ccccc2CN2C(=O)N(c3ccc(F)c(C(F)(F)F)c3)C(=O)C2(C)C)cc1 [Example 144, methyl 4-{2-[3-(4-fluoro-3-trifluoromethylphenyl)-5,5-dimethyl-2,4-dioxoimidazolidin-1-ylmethyl]benzyl}benzoate] | 37 | –
N#Cc1ccc(N2C(=O)N(Cc3ccccc3Cc3ccccc3)C3(CCCCCC3)C2=O)cc1C(F)(F)F [Example 116, 4-[1-(2-Benzylbenzyl)-2,4-dioxo-1,3-diazaspiro[4.6]undec-3-yl]-2-trifluoromethylbenzonitrile] | 26 | –
CC1(C)C(=O)N(c2cc(C(F)(F)F)ccc2F)C(=O)N1Cc1ccccc1Cc1ccccc1 [Example 11] | 132 | –
CC1(C)C(=O)N(c2ccc(C#N)c(C(F)(F)F)c2)C(=O)N1Cc1ccc(F)cc1C(=O)c1ccc(C#N)cc1 [Example 150, 4-{3-[2-(4-Cyano-benzoyl)-4-fluorobenzyl]-4,4-dimethyl-2,5-dioxo-imidazolidin-1-yl}-2-tri-fluoromethylbenzonitrile] | 18 | IC50 (hCB1R [2]): 11 nM
CC1(C)C(=O)N(c2cccc(C#N)c2)C(=O)N1Cc1ccccc1Cc1ccccc1 [Example 16] | 174 | –
CC1(C)C(=O)N(c2cccc(C(F)(F)F)c2)C(=O)N1Cc1ccccc1Cc1ccccc1 [Example 7] | 95 | –
N#Cc1ccc(N2C(=O)N(Cc3ccccc3Cc3ccccc3)C3(CCCCC3)C2=O)cc1C(F)(F)F [Example 114, 4-[1-(2-Benzylbenzyl)-2,4-dioxo-1,3-diazaspiro[4.5]dec-3-yl]-2-trifluoromethylbenzonitrile] | 63 | –
N#Cc1ccc(N2C(=O)N(Cc3ccccc3Cc3ccccc3)C3(CCCC3)C2=O)cc1C(F)(F)F [Example 106, 4-[1-(2-Benzylbenzyl)-2,4-dioxo-1,3-diazaspiro[4.4]-non-3-yl]-2-trifluoro-methylbenzonitrile] | – | IC50 (hCB2R): > 10000 nM; Ki (hCB1R [1]): 11 nM; IC50 (hCB1R [2]): 76 nM
CSc1cccc(N2C(=O)N(Cc3ccccc3Cc3ccccc3)C(C)(C)C2=O)c1 [Example 4] | 217 | –
CC1(C)C(=O)N(c2ccc(C#N)c(S(F)(F)(F)(F)F)c2)C(=O)N1Cc1ccccc1Cc1ccccc1 [Example 102, 4-[3-(2-Benzylbenzyl)-4,4-dimethyl-2,5-dioxo-imidazolidin-1-yl]-2-pentafluorosulfanyl-benzonitrile] | 19 | IC50 (hCB1R [2]): 45 nM
CC1(C)C(=O)N(c2ccc(C#N)c(C(F)(F)F)c2)C(=O)N1Cc1ccc(F)cc1C(=O)c1ccc(Cl)cc1 [Example 139, 4-{3-[2-(4-Chloro-benzoyl)-4-fluorobenzyl]-4,4-dimethyl-2,5-dioxo-imidazolidin-1-yl}-2-trifluoromethylbenzonitrile] | 77 | –
CC1(C)C(=O)N(c2cccc(SC(F)(F)F)c2)C(=O)N1Cc1ccccc1Cc1ccccc1 [Example 13] | 66 | –
CC1(C)C(=O)N(c2ccc(C#N)c(C(F)(F)F)c2)C(=O)N1Cc1ccc(F)cc1C(=O)c1ccc(C(F)(F)F)cc1 [Example 155, 4-{3-[4-Fluoro-2-(4-trifluoromethylbenzoyl)-benzyl]-4,4-dimethyl-2,5-dioxoimidazolidin-1-yl}-2-trifluoromethylbenzonitrile] | 69 | –
CC1(C)C(=O)N(c2cc(Cl)cc(Cl)c2)C(=O)N1Cc1ccccc1Cc1ccccc1 [Example 65] | 153 | –
CC1(C)C(=O)N(c2ccnc(C(F)(F)F)c2)C(=O)N1Cc1ccccc1Cc1ccccc1 [Example 119, 1-(2-Benzylbenzyl)-5,5-dimethyl-3-(2-trifluoromethylpyridin-4-yl)imidazolidine-2,4-dione; hydrochloride] | 23 | IC50 (hCB1R [2]): 97 nM
CC1(C)C(=O)N(c2ccc(Cl)c(Cl)c2)C(=O)N1Cc1ccccc1Cc1ccccc1 [Example 64] | 97 | –
CC1(C)C(=O)N(c2ccc(C#N)c(C(F)(F)F)c2)C(=O)N1Cc1ccc(C(=O)c2ccccc2)cc1 [Example 132, 4-[3-(4-benzoylbenzyl)-4,4-dimethyl-2,5-dioxo-imidazolidin-1-yl]-2-trifluoromethylbenzonitrile] | – | IC50 (hCB2R): > 10000 nM; Ki (hCB1R [1]): 74 nM; IC50 (hCB1R [2]; [3]): 103 nM
COC(=O)c1ccc(Cc2ccccc2CN2C(=O)N(c3ccc(C#N)c(C(F)(F)F)c3)C(=O)C2(C)C)cc1 [Example 143, methyl 4-{2-[3-(4-cyano-3-trifluoromethylphenyl)-5,5-dimethyl-2,4-dioxoimidazolidin-1-ylmethyl]benzyl}benzoate] | 13 | IC50 (hCB1R [2]): 65 nM
